The text below walks through data of patent publication US10919844B2, “Antibacterials and/or modulators of biofilm formation and methods of using the same” (Indiana University Research and Technology Corporation, priority 2015, dated 2021).

Entries after “also recorded” stand apart in the source; their conditions may differ.

Data set [1] can be described thus: water-solubility noted during extractive work-up. Format: physicochemical. Conditions: basic aqueous phase, extraction with dichloromethane.
In another data set the test system is Pseudomonas aeruginosa. Kind of data set: P. aeruginosa biofilm formation assay (K357 biofilm assay, crystal violet OD readout). The data set is classed as cell-based. The conditions noted are these: for activity in preliminary screens: FIG. 1, compounds in red; for activity in the Biofilm Assay: FIG. 23; for activity of purified sample in the biofilm assay: FIGS. 26-28. From the text:
A straightforward biological assay was developed to provide for the study these important bacterial biofilm communities. This assay also provided an efficient means for screening for compounds that have an effect on bacterial growth and/or biofilm formation.
The racemic amino acid derivatives 1 (synthesized in row A of each Bill-Board) are then screened for biological activity (antibacterial activity in a Kirby-Bauer disc plate assay) and/or K357 laboratory (assay for biofilm formation by Pseudomonas aeruginosa).
Referring now to FIG. 3, reproducible P. aeruginosa Biofilm Assays were carried out using newly synthesized twenty-one “unnatural” amino acids. See George A. O'Toole, Microtiter Dish Biofilm Formation Assay, J. VIS EXP. 2011; (47): 2437, disclosures of which are incorporated by reference in its entirety to the extent that they are not inconsistent with the explicit teachings of this specification.
Referring to FIGS. 34-35, all newly synthesized compounds prepared according to the schemes described above were assayed for biofilm formation in multiplicate 24 well plates at a screening dose of 20 μg/mL using crystal violet optical density (OD) readings as the readout. Results were expressed as % biofilm formation relative to a control (control=bacteria alone=100% biofilm formation). The procedure for the biofilm assay was the same as that used by students in the K357 biofilm laboratory.
Referring now to FIGS. 36-38, all compounds assayed in either 96 well or 24 well plates at a screening dose of either 20 or 40 μg/mL, using a biofilm assay with crystal violet optical density (OD) readings as the readout. Results were expressed as % biofilm formation (control=bacteria alone=100% biofilm formation). The procedure for the biofilm assay was the same as that used by students in the K357 biofilm laboratory.

Take `NC(Cc1ccc(F)cc1)C(=O)NCCN1CCOCC1` (stereo not shown) [Compound 5n, 2-Amino-3-(4-fluorophenyl)-N-(2-morpholinoethyl)propanamide]: the water-solubility result in data set [1] is reported as “Appreciable water-solubility”.

In the case of `NC(Cc1cccc(F)c1)C(=O)O` (stereo not shown) [Compound 3-F, 2-Amino-3-(3-fluorophenyl)propanoic acid], in the data set on Pseudomonas aeruginosa, the “activity in preliminary screens” value was “showed activity”, the “activity in the Biofilm Assay” value is listed as “showed activity”, the “potency in modulating/inhibiting biofilm formation (SAR studies)” value is listed as “potent activity” and the “activity of purified sample in the biofilm assay” value (from here on “activity of purified sample”) was “active in a dose dependent manner”.

On to `N[C@@H](Cc1ccc(I)cc1)C(=O)O` [Compound 4-I], for which the “activity in preliminary screens” value in the data set with Pseudomonas aeruginosa was “showed activity”.

In the case of `NC(Cc1ccccc1F)C(=O)O` (stereo not shown) [Compound 2-F, 2-Amino-3-(2-fluorophenyl)propanoic acid], in the data set with Pseudomonas aeruginosa, the “activity in preliminary screens” value is on record as “showed activity”, the “activity in the Biofilm Assay” value is “showed activity”, the “potency in modulating/inhibiting biofilm formation (SAR studies)” value is listed as “potent activity” and the “activity of purified sample” value was “active in a dose dependent manner”. Also, in the data set with Pseudomonas aeruginosa, the “activity of un-purified samples in the K357 biofilm assay” value is “active”.

As to `NC(Cc1ccc(F)c(F)c1)C(=O)O` (stereo not shown) [3,4-F2, 2-Amino-3-(3,4-difluorophenyl)propanoic acid], in the data set with Pseudomonas aeruginosa, the “activity in the Biofilm Assay” value is reported as “showed activity”, the “potency in modulating/inhibiting biofilm formation (SAR studies)” value is given as “potent activity” and the “activity of purified sample” value was “active in a dose dependent manner”.

Turning to `NC(=O)C(N)Cc1ccc(F)cc1` (stereo not shown) [4-fluorophenylalanine amide, 2-Amino-3-(4-fluorophenyl)propanamide], in the data set on Pseudomonas aeruginosa, the “potency in modulating/inhibiting biofilm formation (SAR studies)” value is given as “very potent inhibitor”.

Turning to `NC(Cc1ccc(F)cc1)C(=O)N1CCCC1` (stereo not shown) [Compound 5p, 2-Amino-3-(4-fluorophenyl)-1-(pyrrolidin-1-yl)propan-1-one], the water-solubility result in data set [1] is on record as “Appreciable water-solubility”.

In the case of `NC(Cc1ccc(F)cc1)C(=O)O` (stereo not shown) [Compound 4-F, 2-Amino-3-(4-fluorophenyl)propanoic acid], in the data set on Pseudomonas aeruginosa, the “activity in preliminary screens” value is “showed activity”, the “activity in the Biofilm Assay” value was “showed activity”, the “potency in modulating/inhibiting biofilm formation (SAR studies)” value is “potent activity” and the “activity of purified sample” value is recorded as “active in a dose dependent manner; also recorded: confirmed this activity”. The “activity of un-purified samples in the K357 biofilm assay” value in the data set with Pseudomonas aeruginosa was “active”. The “potency in the biofilm assay compared with tobramycin” value in the data set on Pseudomonas aeruginosa (FIG. 24, comparator tobramycin) was “as potent as tobramycin”.
